The values below come from patent US11471444B2, “Methods of inhibiting tumor metastasis” (Vanderbilt University, priority 2017, dated 2022).

Data set [1] deals with 4T1-RFP-luciferase cells. Kind of data set: Orthotopic 4T1 mouse model of metastasis (second experiment). Format: in vivo, Balb/C mice. As to conditions: ifetroban 50 mg/kg daily or aspirin 12 mg/kg daily from tumor volume 50 mm^3; lungs harvested approx. 4 weeks later; FIG. 3. The protocol: 1×10^5 4T1-RFP-luciferase cells were implanted into the left inguinal mammary fatpads of 6-week old, virgin WT Balb/C female mice as above. Mice were treated by orogastric gavage with ifetroban (50 mg/kg daily) or vehicle control when average tumor volume reached 50 mm^3 as above. Additionally a third group was treated with aspirin (12 mg/kg daily). Lungs were harvested approximately 4 weeks later. Lungs were assessed by whole mount hematoxylin staining to enumerate surface metastases (macro metastases) (FIG. 3).

Data set [2] relates to 4T1-RFP-luciferase cells. Kind of data set: Orthotopic 4T1 mouse model of metastasis (first experiment). Format: in vivo, Balb/C mice. Here is the method: 1×10^5 4T1-RFP-luciferase cells were implanted into the left inguinal mammary fatpads of 6-week old, virgin WT Balb/C female mice using the following protocol. Mammary tumor cells (4T1-RFP-luciferase cells) are collected by trypsinization, counted, and resuspended in 50 microliters of serum-free media+50 microliters of growth factor-reduced Matrigel, for a total volume of 100 microliters. The cells are loaded into a syringe with a 26-g needle. The cells are injected into the inguinal mammary gland, which lies directly under (and attached to) the skin. The entire injection procedure takes about 10 seconds per mouse. Mice were treated by orogastric gavage with ifetroban (50 mg/kg daily) or vehicle control when average tumor volume reached 200 mm^3, using 8 mice in the ifetroban treatment group, 4 mice in the control group, and 4% sucrose in water for the vehicle. Tumors, lungs and plasma were harvested approximately 3 weeks later. Lungs were assessed by whole mount hematoxylin staining to enumerate surface metastases (macro metastases) (FIG. 1). Lungs were sectioned and stained with hematoxylin and eosin to confirm that hematoxylin-stained nodules were metastatic lesions, and to enumerate microscopic metastases (FIG. 2).
(§1) 1×10^5 4T1-RFP-luciferase cells were implanted into the left inguinal mammary fat pads of 6-week old, virgin WT Balb/C female mice. Mice were treated by orogastric gavage with ifetroban (50 mg/kg daily; N=8) or vehicle control (N=4) when average tumor volume reached 200 mm^3. […] Mouse total body weight was not affected by Ifetroban treatment (50 mg/kg daily) for 3 weeks (FIG. 5C).

In the next data set the test system is MDA-MB-231 cells. Kind of data set: Lung metastases after tail vein injection of MDA-MB-231 cells. The format is in vivo, mice. As to conditions: 50 mg/kg daily by orogastric gavage from 48 h before cell injection, continued 3 weeks; FIG. 4. Here is the method:
Mice were randomized into groups receiving treatment by orogastric gavage with ifetroban (50 mg/kg daily) or vehicle, using 10 mice in both the ifetroban and control groups and 4% sucrose in water for the vehicle. Mice were treated 48 h prior to hematogenous delivery of MDA-MB-231 cells (1×10^5 cells) by tail vein injection, and ifetroban treatment was continued for 3 weeks thereafter, at which point lungs were collected from each mouse, and lung metastatic lesions visible to the naked eye were counted (FIG. 4).

For another data set, the system named is 4T1 cells. Kind of data set: 4T1 cell culture growth and viability. The format is cell-based. As to conditions: treated for 96 hours; FIG. 5A. From the text: For cell culture experiments, vehicle is PBS.
Data set [3] in a line: Total body weight of 4T1 tumor-bearing mice. Format: in vivo, Balb/C mice. As to conditions: 50 mg/kg daily for 3 weeks; FIG. 5C. The protocol: as §1
Data set [4] deals with MDA-MB-231 (breast) cancer cells. Kind of data set: Hematogenous metastasis of breast cancer cells (tail vein injection). Format: in vivo, nu/nu mice. The settings on record: 50 mg/kg by orogastric gavage, pre-treated 24 hours, daily for 21 days; FIG. 8. The protocol:
(§2) MDA-MB-231 (breast), MiaPaca2 (pancreas) and A549 (lung) cancer cells were delivered by tail vein injection to nu/nu mice pre-treated 24 hours by orogastric gavage with ifetroban (50 mg/kg; N=10 per group) or vehicle (N=10). Mice continued daily treatment for an additional 21 days. On day 21, lungs were harvested and assessed for metastases. N=9, P value, Student's t-test.

Data set [5] concerns MiaPaca2 (pancreas) cancer cells. Kind of data set: Hematogenous metastasis of pancreatic cancer cells (tail vein injection). Format: in vivo, nu/nu mice. The settings on record: 50 mg/kg by orogastric gavage, pre-treated 24 hours, daily for 21 days; FIG. 8. The protocol: as §2
The subject of a further data set is A549 (lung) cancer cells. Kind of data set: Hematogenous metastasis of lung cancer cells (tail vein injection). The format is in vivo, nu/nu mice. The settings on record: 50 mg/kg by orogastric gavage, pre-treated 24 hours, daily for 21 days; FIG. 8. Here is the method:
as §2

As to `CC(=O)Oc1ccccc1C(=O)O` [aspirin], the “surface lung metastases (macro metastases)” value in the data set on 4T1-RFP-luciferase cells [1] is “decrease”.
As to `CCCCCNC(=O)c1coc([C@H]2[C@@H](Cc3ccccc3CCC(=O)O)[C@@H]3CC[C@H]2O3)n1` [ifetroban], the microscopic lung metastases result with 4T1-RFP-luciferase cells [2] (50 mg/kg daily by orogastric gavage from tumor volume 200 mm^3, approx. 3 weeks, lung sections, hematoxylin and eosin, FIG. 2) is “decrease”. Besides, the “surface lung metastases (macro metastases)” value in the data set with 4T1-RFP-luciferase cells [2] (50 mg/kg daily by orogastric gavage from tumor volume 200 mm^3, lungs harvested approx. 3 weeks later, whole mount hematoxylin staining, FIG. 1) is reported as “decrease”; in the data set on 4T1-RFP-luciferase cells [1] it was “decrease”. Further, the primary tumor volume result in the data set on 4T1-RFP-luciferase cells [2] (50 mg/kg daily for 3 weeks, FIG. 5B) was “did not affect”. For the same molecule, in the data set with MDA-MB-231 cells, the “lung metastatic lesions visible to the naked eye” value is reported as “decrease”. For the same molecule, the “4T1 cell number (automated cell counting)” value in the data set on 4T1 cells is recorded as “no ifetroban-mediated changes”. The “number of apoptotic 4T1 cells (Annexin V staining)” value with 4T1 cells was “no ifetroban-mediated changes”. Moreover, in data set [3], the “total mouse body weight” value is “not affected”. The “hematogenous metastasis to lungs, breast cancer cells” value in data set [4] is recorded as “decreased”. For the same molecule, in data set [5], the “hematogenous metastasis to lungs, pancreatic cancer cells” value is reported as “decreased”. Besides, the “hematogenous metastasis to lungs, lung cancer cells” value in the data set with A549 (lung) cancer cells is on record as “decreased”.
